Assay results reported in the supplement of paper PMC8149375.
Each block holds one compound with its values, some of them ahead of it.

What was measured:
Details in all cases: treatment: drug alone; 5 days
[1] = test system: 769-P; experiment: GI50, drug alone; higher = less potent
Description: (§1)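 Primary HTS: 8 RCC cell lines treated with 8 doses (up to 10 uM) of each library drug alone for 5 days; viability read by CellTiter-Glo and normalised to DMSO. GI50 was fitted with XLfit (4-parameter), AUC is the area under the dose-response curve, and minimum viability is the lowest fraction of DMSO viability across doses.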

[2] = test system: 786-O; experiment: GI50, drug alone; higher = less potent
Description: as §1

[3] = test system: A498; experiment: GI50, drug alone; higher = less potent
Description: as §1

[4] = test system: ACHN; experiment: GI50, drug alone; higher = less potent
Description: as §1

[5] = test system: CAKI-1; experiment: GI50, drug alone; higher = less potent
Description: as §1

[6] = test system: SN12C; experiment: GI50, drug alone; higher = less potent
Description: as §1

[7] = test system: TK-10; experiment: GI50, drug alone; higher = less potent
Description: as §1

[8] = test system: UO-31; experiment: GI50, drug alone; higher = less potent
Description: as §1

[9] = test system: 769-P; experiment: minimum viability across doses, drug alone, relative to DMSO (fraction); higher = less growth inhibition
Description: as §1

[10] = test system: 786-O; experiment: as above
Description: as §1

[11] = test system: A498; experiment: as above
Description: as §1

[12] = test system: ACHN; experiment: as above
Description: as §1

[13] = test system: CAKI-1; experiment: as above
Description: as §1

[14] = test system: SN12C; experiment: as above
Description: as §1

[15] = test system: TK-10; experiment: as above
Description: as §1

[16] = test system: UO-31; experiment: as above
Description: as §1

[17] = test system: 769-P; experiment: AUC of dose-response viability curve, drug alone (arbitrary (AUC of normalised viability)); higher = less growth inhibition
Description: as §1

[18] = test system: 786-O; experiment: as above
Description: as §1

[19] = test system: A498; experiment: as above
Description: as §1

[20] = test system: ACHN; experiment: as above
Description: as §1

[21] = test system: CAKI-1; experiment: as above
Description: as §1

[22] = test system: SN12C; experiment: as above
Description: as §1

[23] = test system: TK-10; experiment: as above
Description: as §1

[24] = test system: UO-31; experiment: as above
Description: as §1

GI50, drug alone [2]: 727 nM
GI50, drug alone [4]: 975 nM
Compound: Cc1nc(N)sc1-c1ccnc(Nc2ccc(N3CCOCC3)cc2)n1 [CYC116]
GI50, drug alone [1]: 2990 nM
GI50, drug alone [3]: 7870 nM
GI50, drug alone [5]: 693 nM
GI50, drug alone [6]: 3210 nM
GI50, drug alone [7]: 1890 nM
GI50, drug alone [8]: 8170 nM
minimum viability across doses [9]: 0.137
minimum viability across doses [10]: 0.00272
minimum viability across doses [11]: 0.287
minimum viability across doses [12]: 0.107
minimum viability across doses [13]: 0.027
minimum viability across doses [14]: 0.207
minimum viability across doses [15]: 0.152
minimum viability across doses [16]: 0.00864
AUC of dose-response viability curve [17]: 2.86
AUC of dose-response viability curve [18]: 1.88
AUC of dose-response viability curve [19]: 3.68
AUC of dose-response viability curve [20]: 2.45
AUC of dose-response viability curve [21]: 2.23
AUC of dose-response viability curve [22]: 2.72
AUC of dose-response viability curve [23]: 2.31
AUC of dose-response viability curve [24]: 3.6

GI50, drug alone [2]: 2600 nM
GI50, drug alone [4]: 969 nM
Compound: COc1cc2c(Oc3ccc4[nH]c(C)cc4c3F)ncnc2cc1OCCCN1CCCC1 [Cediranib (AZD2171)]
GI50, drug alone [1]: 5430 nM
GI50, drug alone [3]: 5360 nM
GI50, drug alone [5]: 740 nM
GI50, drug alone [6]: 2870 nM
GI50, drug alone [7]: 2290 nM
GI50, drug alone [8]: 2980 nM
minimum viability across doses [9]: 0.293
minimum viability across doses [10]: 0.129
minimum viability across doses [11]: 0.17
minimum viability across doses [12]: 0.0987
minimum viability across doses [13]: 0.0807
minimum viability across doses [14]: 0.248
minimum viability across doses [15]: 0.0469
minimum viability across doses [16]: 0.0213
AUC of dose-response viability curve [17]: 2.94
AUC of dose-response viability curve [18]: 2.5
AUC of dose-response viability curve [19]: 3.15
AUC of dose-response viability curve [20]: 2.5
AUC of dose-response viability curve [21]: 2.35
AUC of dose-response viability curve [22]: 2.55
AUC of dose-response viability curve [23]: 2.62
AUC of dose-response viability curve [24]: 2.76

GI50, drug alone [2]: 941 nM
GI50, drug alone [4]: 1980 nM
Compound: N#CCNC(=O)c1ccc(-c2ccnc(Nc3ccc(N4CCOCC4)cc3)n2)cc1 [Cyt387]
GI50, drug alone [1]: 6390 nM
GI50, drug alone [3]: > 10000 nM
GI50, drug alone [5]: 1420 nM
GI50, drug alone [6]: 8320 nM
GI50, drug alone [7]: 2700 nM
GI50, drug alone [8]: 4280 nM
minimum viability across doses [9]: 0.29
minimum viability across doses [10]: 0.00487
minimum viability across doses [11]: 0.868
minimum viability across doses [12]: 0.0637
minimum viability across doses [13]: 0.0592
minimum viability across doses [14]: 0.434
minimum viability across doses [15]: 0.152
minimum viability across doses [16]: 0.0114
AUC of dose-response viability curve [17]: 3.08
AUC of dose-response viability curve [18]: 2.19
AUC of dose-response viability curve [19]: 4.74
AUC of dose-response viability curve [20]: 2.82
AUC of dose-response viability curve [21]: 2.51
AUC of dose-response viability curve [22]: 3.06
AUC of dose-response viability curve [23]: 2.6
AUC of dose-response viability curve [24]: 3.36

GI50, drug alone [2]: 3760 nM
GI50, drug alone [4]: 1790 nM
Compound: CNC(=O)c1cc(Oc2ccc(NC(=O)Nc3cc(C(C)(C)C)nn3-c3ccc4ncccc4c3)c(F)c2)ccn1 [DCC-2036 (Rebastinib)]
GI50, drug alone [1]: > 10000 nM
GI50, drug alone [3]: 7590 nM
GI50, drug alone [5]: 1250 nM
GI50, drug alone [6]: 2920 nM
GI50, drug alone [7]: 2140 nM
GI50, drug alone [8]: 1720 nM
minimum viability across doses [9]: 0.752
minimum viability across doses [10]: 0.359
minimum viability across doses [11]: 0.0163
minimum viability across doses [12]: 0.0439
minimum viability across doses [13]: 0.104
minimum viability across doses [14]: 0.0299
minimum viability across doses [15]: 0.0459
minimum viability across doses [16]: 0.00743
AUC of dose-response viability curve [17]: 3.43
AUC of dose-response viability curve [18]: 2.8
AUC of dose-response viability curve [19]: 3.2
AUC of dose-response viability curve [20]: 2.92
AUC of dose-response viability curve [21]: 2.63
AUC of dose-response viability curve [22]: 2.95
AUC of dose-response viability curve [23]: 2.94
AUC of dose-response viability curve [24]: 4.08
